Experimental findings from PubChem BioAssay AID330 (DTP/NCI, 2004) are described below.

The assay deals with P388 leukemia ip, CD2F1 mice, survival T/C. Put plainly: NCI In Vivo Anticancer Drug Screen. Data for tumor model P388 Leukemia (intraperitoneal) in CD2F1 (CDF1) mice. Conditions: endpoint: median survival time, higher = longer survival. Summed up: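 Mice carrying the transplanted tumor received test compound or vehicle. Survival was recorded in each group, and the value is the treated-group measurement divided by that of the vehicle-treated control group.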

The mark [1] stands for this setting: dose: 50.0 mg/kg/injection, schedule: Q01DX005 (ip), vehicle: saline.
The mark [2] stands for this setting: dose: 100.0 mg/kg/injection, schedule: Q01DX005 (ip), vehicle: saline.
[3] abbreviates: dose: 200.0 mg/kg/injection, schedule: Q01DX005 (ip), vehicle: saline.
[4] abbreviates: dose: 12.5 mg/kg/injection, schedule: Q01DX005 (ip), vehicle: Klucel (hydroxypropylcellulose) (HPC).
[5] abbreviates: dose: 25.0 mg/kg/injection, schedule: Q01DX005 (ip), vehicle: Klucel (hydroxypropylcellulose) (HPC).
Setting [6] is: dose: 50.0 mg/kg/injection, schedule: Q01DX005 (ip), vehicle: Klucel (hydroxypropylcellulose) (HPC).
The mark [7] stands for this setting: dose: 60.0 mg/kg/injection, schedule: Q01DX005 (ip), vehicle: Klucel (hydroxypropylcellulose) (HPC).
Where [8] appears, read: dose: 120.0 mg/kg/injection, schedule: Q01DX005 (ip), vehicle: Klucel (hydroxypropylcellulose) (HPC).
Where [9] appears, read: dose: 50.0 mg/kg/injection, schedule: Q01DX009 (ip), vehicle: saline with Tween-80.
The mark [10] stands for this setting: dose: 100.0 mg/kg/injection, schedule: Q04DX002 (ip), vehicle: saline with Tween-80.
[11] abbreviates: dose: 200.0 mg/kg/injection, schedule: Q04DX002 (ip), vehicle: saline with Tween-80.
[12] abbreviates: dose: 50.0 mg/kg/injection, schedule: Q01DX005 (ip), vehicle: saline with Tween-80.
Setting [13] is: dose: 60.0 mg/kg/injection, schedule: Q01DX005 (ip), vehicle: saline with Tween-80.
Setting [14] is: dose: 120.0 mg/kg/injection, schedule: Q01DX005 (ip), vehicle: saline with Tween-80.
The mark [15] stands for this setting: dose: 100.0 mg/kg/injection, schedule: Q01DX005 (ip), vehicle: saline with Tween-80.

SMILES strings stand for the structures. Values joined by “and” are separate entries in the source; they are usually repeats but may differ in a detail not shown here. Equal entries are not always repeated. Toxic doses and inconclusive results are not listed.

Take `CC(NCCNC(C)c1cccnc1)c1cccnc1` (stereo unspecified): the T/C by setting is: under setting [1], 102 % of control; under setting [2], 110 % of control; under setting [3], 94 % of control.
Take `CN(C)N1C(=O)C2C3C=CC(O3)C2C1=O` (stereo unspecified): the T/C reads like this: under setting [1], 104 % of control; under setting [2], 109 % of control; under setting [3], 100 % of control.
As to `CCOc1ccc(C2=C(O)/C(=C(\C(=O)Nc3nccs3)c3ccc(OCC)cc3)OC2=O)cc1`, the T/C by setting is: under setting [4], 109 % of control; under setting [5], 104 % of control; under setting [6], 100 % of control and 104 % of control.
Consider `COc1cccc2c1C(=O)c1nccc3cc4c(c-2c13)OCO4`, for which the T/C reads like this: (dose: 30.0 mg/kg/injection, schedule: Q01DX005 (ip), vehicle: Klucel (hydroxypropylcellulose) (HPC)) 91 % of control; under setting [7], 90 % of control; under setting [8], 110 % of control.
In the case of `CC(C)(C)c1cc(O)cc(C(=O)O)c1O`, the T/C is 101 % of control under setting [9] and 100 % of control (dose: 100.0 mg/kg/injection, schedule: Q01DX009 (ip), vehicle: saline with Tween-80).
On to `O=C(O)CCCCCCCCCc1ccccc1`, for which the T/C was 100 % of control (dose: 12.5 mg/kg/injection, schedule: Q01DX009 (ip), vehicle: saline with Tween-80); 97 % of control (dose: 25.0 mg/kg/injection, schedule: Q01DX009 (ip), vehicle: saline with Tween-80); 95 % of control under setting [9]; 97 % of control (dose: 50.0 mg/kg/injection, schedule: Q01DX009 (ip), vehicle: saline).
Take `O=C1c2ccccc2C(=O)N1CCCN1CCOCCOCCN(CCCN2C(=O)c3ccccc3C2=O)CCOCCOCC1`: the T/C reads like this: (dose: 25.0 mg/kg/injection, schedule: Q04DX002 (ip), vehicle: saline + Tween-80 + alcohol) 100 % of control; (dose: 50.0 mg/kg/injection, schedule: Q04DX002 (ip), vehicle: saline + Tween-80 + alcohol) 104 % of control; (dose: 100.0 mg/kg/injection, schedule: Q04DX002 (ip), vehicle: saline + Tween-80 + alcohol) 102 % of control and 95 % of control.
For the molecule `Nc1nc2nn(-c3ccc(C(=O)NC(CCC(=O)O)C(=O)O)cc3)nc2c(=O)[nH]1` (stereo unspecified), the T/C reads like this: (dose: 12.5 mg/kg/injection, schedule: Q01DX009 (ip), vehicle: Klucel (hydroxypropylcellulose) (HPC)) 95 % of control; (dose: 25.0 mg/kg/injection, schedule: Q01DX009 (ip), vehicle: Klucel (hydroxypropylcellulose) (HPC)) 94 % of control; (dose: 50.0 mg/kg/injection, schedule: Q01DX009 (ip), vehicle: Klucel (hydroxypropylcellulose) (HPC)) 94 % of control; (dose: 100.0 mg/kg/injection, schedule: Q01DX009 (ip), vehicle: Klucel (hydroxypropylcellulose) (HPC)) 96 % of control.
`CC(=O)/C(=C\c1ccc(Cl)cc1)C(=O)CCN(C)C`: the T/C under setting [1] was 112 % of control and the T/C under setting [2] is 118 % of control.
For the molecule `CC12CC3CN(C(=O)c4ccccc4)CCC3CC1=Nc1ccccc12` (stereo unspecified), the T/C runs as follows: (dose: 25.0 mg/kg/injection, schedule: Q04DX002 (ip), vehicle: saline with Tween-80) 100 % of control; (dose: 50.0 mg/kg/injection, schedule: Q04DX002 (ip), vehicle: saline with Tween-80) 103 % of control; under setting [10], 94 % of control; under setting [11], 86 % of control.
For `COc1ccc(C(=O)/C(C)=C(/C)NCCC#N)c(OCc2ccccc2)c1OC`, the T/C (dose: 25.0 mg/kg/injection, schedule: Q01DX009 (ip), vehicle: other) was 95 % of control; the T/C (dose: 50.0 mg/kg/injection, schedule: Q01DX009 (ip), vehicle: other) is 91 % of control; the T/C (dose: 100.0 mg/kg/injection, schedule: Q01DX009 (ip), vehicle: other) was 95 % of control; the T/C (dose: 200.0 mg/kg/injection, schedule: Q01DX009 (ip), vehicle: other) was 100 % of control; the T/C (dose: 400.0 mg/kg/injection, schedule: Q01DX009 (ip), vehicle: other) is 95 % of control.
Take `c1c(-c2cc(C3CC3)on2)noc1C1CC1`: the T/C is, setting by setting: (dose: 60.0 mg/kg/injection, schedule: Q01DX005 (ip), vehicle: saline) 100 % of control; (dose: 120.0 mg/kg/injection, schedule: Q01DX005 (ip), vehicle: saline) 109 % of control; (dose: 240.0 mg/kg/injection, schedule: Q01DX005 (ip), vehicle: saline) 105 % of control.
As to `O=S1(=O)CS(=O)(=O)OCCCCCO1`, the T/C by setting is: (dose: 6.25 mg/kg/injection, schedule: Q01DX005 (ip), vehicle: Klucel (hydroxypropylcellulose) (HPC)) 161 % of control; under setting [4], 211 % of control and 213 % of control; under setting [5], 255 % of control and 288 % of control; under setting [6], 165 % of control and 288 % of control.
With `COc1ccc(-c2c(-c3ccccc3)oc(/N=C/c3ccccc3)c2-c2ccccc2)cc1`, the T/C is 101 % of control (dose: 12.5 mg/kg/injection, schedule: Q01DX005 (ip), vehicle: saline with Tween-80); 90 % of control (dose: 25.0 mg/kg/injection, schedule: Q01DX005 (ip), vehicle: saline with Tween-80); 90 % of control under setting [12].
As to `O=C(Cc1nc2ccccc2s1)Nc1ccc2ccccc2c1`, the T/C reads like this: under setting [13], 107 % of control; under setting [14], 106 % of control.
Consider `CCCC(O)CCC(O)=C1C(=O)CCC1=O` (stereo unspecified), for which the T/C by setting is: under setting [1], 107 % of control; under setting [2], 107 % of control; under setting [3], 107 % of control.
For the molecule `CC1=NNC(=O)C1N=Nc1c(C)n(C)n(-c2ccccc2)c1=O` (stereo unspecified), the T/C is 100 % of control under setting [12]; 99 % of control under setting [15]; 100 % of control (dose: 200.0 mg/kg/injection, schedule: Q01DX005 (ip), vehicle: saline with Tween-80).
For `CC(Cc1ccccc1)C(=O)Nc1ccccc1` (stereo unspecified), the T/C was 91 % of control under setting [10]; 94 % of control under setting [11]; 91 % of control (dose: 400.0 mg/kg/injection, schedule: Q04DX002 (ip), vehicle: saline with Tween-80).
`Cc1cc(C)n(-c2ccc(S(=O)(=O)N3CC(=O)N(c4ccccc4)C3=S)cc2)n1`: the T/C by setting is: under setting [12], 95 % of control; under setting [15], 93 % of control.
On to `Cc1ccc(NCCCN2CCN(CCCNc3ccc(C)c4sc5ccccc5c(=O)c34)CC2)c2c(=O)c3ccccc3sc12`, for which the T/C was 97 % of control (dose: 0.5 mg/kg/injection, schedule: Q01DX005 (ip), vehicle: saline with Tween-80); 88 % of control (dose: 1.0 mg/kg/injection, schedule: Q01DX005 (ip), vehicle: saline with Tween-80); 97 % of control (dose: 2.0 mg/kg/injection, schedule: Q01DX005 (ip), vehicle: saline with Tween-80); 90 % of control (dose: 4.0 mg/kg/injection, schedule: Q01DX005 (ip), vehicle: saline with Tween-80).
Regarding `CC1(C)CN(Cc2ccccc2)C1(C)C#N` (stereo unspecified), the T/C is, setting by setting: under setting [13], 100 % of control; under setting [14], 105 % of control.
With `COC1=CC(=O)c2c(O)cc(OC)cc2C1=O`, the T/C is, setting by setting: (dose: 1.25 mg/kg/injection, schedule: Q01DX009 (ip), vehicle: saline with Tween-80) 106 % of control and 116 % of control; (dose: 2.5 mg/kg/injection, schedule: Q01DX009 (ip), vehicle: saline with Tween-80) 101 % of control and 108 % of control; (dose: 5.0 mg/kg/injection, schedule: Q01DX009 (ip), vehicle: saline with Tween-80) 100 % of control and 114 % of control; (dose: 10.0 mg/kg/injection, schedule: Q01DX009 (ip), vehicle: saline with Tween-80) 100 % of control and 92 % of control; (dose: 20.0 mg/kg/injection, schedule: Q01DX009 (ip), vehicle: saline with Tween-80) 107 % of control and 92 % of control.
Take `CCCC(=O)Nc1cc([N+](=O)[O-])c([N+](=O)[O-])cc1OC`: the T/C runs as follows: under setting [7], 94 % of control; under setting [8], 91 % of control; (dose: 240.0 mg/kg/injection, schedule: Q01DX005 (ip), vehicle: Klucel (hydroxypropylcellulose) (HPC)) 94 % of control.
Turning to `O=C(CC(O)CCc1ccc(O)c(O)c1)O[C@H]1Cc2c(O)cc(O)cc2O[C@H]1c1ccc(O)c(O)c1` (stereo partly specified), the T/C runs as follows: (dose: 20.0 mg/kg/injection, schedule: Q01DX005 (ip), vehicle: saline with Tween-80) 105 % of control; (dose: 40.0 mg/kg/injection, schedule: Q01DX005 (ip), vehicle: saline with Tween-80) 105 % of control; (dose: 80.0 mg/kg/injection, schedule: Q01DX005 (ip), vehicle: saline with Tween-80) 100 % of control.
